In patent US8802702B2, “Compounds for reducing drug resistance and uses thereof” (The General Hospital Corporation, priority 2009, dated 2014):
Read-outs that look alike come from different tables or passages of the source.

Legend:
OVCAR8TR cells = experiment: Reversal of drug resistance, cytotoxicity (MTT) assay in OVCAR8TR; assay type: cell-based, human; conditions: for IC50: Homo sapiens
[1] = system: SKOV-3TR and KHOSR2 cells; experiment: Flow cytometry of intracellular doxorubicin retention; assay type: cell-based, human; conditions: 5 μM doxorubicin, NSC23925 0.5 μM, 1 hour
Method: FIG. 9 depicts the intracellular retention of doxorubicin from multidrug resistant SKOV-3TR and KHOSR2 cells in the presence of 5 μM doxorubicin with or without treatment of NSC23925 (0.5 μM). Cells were treated for 1 hour before the flow cytometry analysis.

[2] = system: Pgp1 mediated transport in SKOV-3TR cells; experiment: Duration of MDR reversal after incubation and washout; assay type: cell-based, human; conditions: overnight exposure 1 μM
Method: Drug cytotoxicity was determined by MTT assay.
The cells were then incubated for 4 days with addition of varying concentrations of paclitaxel. Final results were determined by MTT assay as described above.

SKOV-3TR cells = experiment: Reversal of drug resistance, cytotoxicity (MTT) assay in SKOV-3TR; assay type: cell-based; conditions: for IC50: Homo sapiens, SKOV3TR
Method: FIGS. 1 (a-b) are graphs that depict the effects of NSC23925 on drug sensitivity in ovarian cancer cells; 1(a) depicts the effects of NSC23925 on sensitive (SKOV-3) and resistant (SKOV-3TR) cells; 1(b) depicts the effects of NSC23925 on sensitive (OVCAR8) and resistant (OVCAR8TR) cells. […] The relative sensitivity of each line to paclitaxel was determined by MTT assay, as described below in the Examples section, 6 days post treatment. […]
Drug cytotoxicity was assessed in vitro using the MTT assay. SKOV-3 and SKOV-3TR cells were used herein. Briefly, 2×10^3 cells per well were plated in 96-well plates in culture medium (RPMI 1640 supplemented with 10% fetal bovine serum and penicillin/streptomycin) containing increasing concentrations of drug. […] The resulting formazan product was dissolved with acid-isopropanol and the absorbance at a wavelength of 490 nm (A490) was read on a SPECTRAmax® Microplate Spectrophotometer (Molecular Devices, Sunnyvale, Calif.). The absorbance values were normalized by assigning the value of the control line in the medium without drug to 1.0 and the value of the no cell control to 0. Experiments were performed in triplicate.

[3] = Doxorubicin, add NSC23925 0.1 μM
[4] = Doxorubicin, add NSC23925 0.5 μM
[5] = Paclitaxel, add NSC23925 0.1 μM

## COc1ccc(-c2cc(C(O)C3CCCCN3)c3ccccc3n2)cc1 (stereo not drawn) [NSC23925, (2-(4-methoxyphenyl)quinolin-4-yl)(piperidin-2-yl)methanol]
OVCAR8TR cells; [3]
  fold-reversal of drug resistance, OVCAR8TR: (2.3) fold
OVCAR8TR cells; [4]
  fold-reversal of drug resistance, OVCAR8TR: (5.3) fold
OVCAR8TR cells; Doxorubicin, add NSC23925 1 μM
  fold-reversal of drug resistance, OVCAR8TR: (23) fold
OVCAR8TR cells; ET-743, add NSC23925 0.1 μM
  fold-reversal of drug resistance, OVCAR8TR: (1.2) fold
OVCAR8TR cells; ET-743, add NSC23925 0.5 μM
  fold-reversal of drug resistance, OVCAR8TR: (1.2) fold
OVCAR8TR cells; ET-743, add NSC23925 1 μM
  fold-reversal of drug resistance, OVCAR8TR: (0.9) fold
OVCAR8TR cells; Doxorubicin, add NSC23925 0.1 μM, read-out: OVCAR8TR IC50 of Doxorubicin
  IC50: 12400 ± 360 nM
OVCAR8TR cells; Doxorubicin, add NSC23925 0.5 μM, read-out: OVCAR8TR IC50 of Doxorubicin
  IC50: 5200 ± 471 nM
OVCAR8TR cells; Doxorubicin, add NSC23925 1 μM, read-out: OVCAR8TR IC50 of Doxorubicin
  IC50: 1220 ± 122 nM
OVCAR8TR cells; ET-743, add NSC23925 0.1 μM, read-out: OVCAR8TR IC50 of ET-743
  IC50: 5 ± 1 nM
OVCAR8TR cells; ET-743, add NSC23925 0.5 μM, read-out: OVCAR8TR IC50 of ET-743
  IC50: 5 ± 1 nM
OVCAR8TR cells; ET-743, add NSC23925 1 μM, read-out: OVCAR8TR IC50 of ET-743
  IC50: 7 ± 2 nM
OVCAR8TR cells; PM00104, add NSC23925 0.1 μM, read-out: OVCAR8TR IC50 of PM00104
  IC50: 8 ± 2 nM
OVCAR8TR cells; PM00104, add NSC23925 0.5 μM, read-out: OVCAR8TR IC50 of PM00104
  IC50: 6 ± 2 nM
OVCAR8TR cells; PM00104, add NSC23925 1 μM, read-out: OVCAR8TR IC50 of PM00104
  IC50: 5 ± 2 nM
OVCAR8TR cells; Paclitaxel, add NSC23925 0.5 μM, read-out: OVCAR8TR IC50 of Paclitaxel
  IC50: 72 ± 46 nM
OVCAR8TR cells; Paclitaxel, add NSC23925 1 μM, read-out: OVCAR8TR IC50 of Paclitaxel
  IC50: 28 ± 47 nM
OVCAR8TR cells; PM00104, add NSC23925 0.1 μM
  fold-reversal of drug resistance, OVCAR8TR: (1) fold
OVCAR8TR cells; PM00104, add NSC23925 0.5 μM
  fold-reversal of drug resistance, OVCAR8TR: (1.3) fold
OVCAR8TR cells; PM00104, add NSC23925 1 μM
  fold-reversal of drug resistance, OVCAR8TR: (1.6) fold
OVCAR8TR cells; [5]
  fold-reversal of drug resistance, OVCAR8TR: (2.7) fold
OVCAR8TR cells; Paclitaxel, add NSC23925 1 μM
  fold-reversal of drug resistance, OVCAR8TR: (12.1) fold
[1]
  Accumulation of doxorubicin by flow cytometric analysis: increases the accumulation of doxorubicin
[2]
  Duration of inhibition of Pgp1 mediated transport after wash-out: at least 4 days
SKOV-3TR cells; [3]
  fold-reversal of drug resistance, SKOV-3TR: (1.4) fold
SKOV-3TR cells; [4]
  fold-reversal of drug resistance, SKOV-3TR: (3.3) fold
SKOV-3TR cells; Doxorubicin, add NSC23925 1 μM
  fold-reversal of drug resistance, SKOV-3TR: (11.5) fold
SKOV-3TR cells; ET-743, add NSC23925 0.1 μM
  fold-reversal of drug resistance, SKOV-3TR: (0.8) fold
SKOV-3TR cells; ET-743, add NSC23925 0.5 μM
  fold-reversal of drug resistance, SKOV-3TR: (1) fold
SKOV-3TR cells; ET-743, add NSC23925 1 μM
  fold-reversal of drug resistance, SKOV-3TR: (1) fold
SKOV-3TR cells; Doxorubicin, add NSC23925 0.1 μM, read-out: SKOV-3TR IC50 of Doxorubicin
  IC50: 16500 ± 210 nM
SKOV-3TR cells; Doxorubicin, add NSC23925 0.5 μM, read-out: SKOV-3TR IC50 of Doxorubicin
  IC50: 6780 ± 160 nM
SKOV-3TR cells; Doxorubicin, add NSC23925 1 μM, read-out: SKOV-3TR IC50 of Doxorubicin
  IC50: 1940 ± 220 nM
SKOV-3TR cells; ET-743, add NSC23925 0.1 μM, read-out: SKOV-3TR IC50 of ET-743
  IC50: 5 ± 2 nM
SKOV-3TR cells; ET-743, add NSC23925 0.5 μM, read-out: SKOV-3TR IC50 of ET-743
  IC50: 4 ± 1 nM
SKOV-3TR cells; ET-743, add NSC23925 1 μM, read-out: SKOV-3TR IC50 of ET-743
  IC50: 4 ± 1 nM
SKOV-3TR cells; PM00104, add NSC23925 0.1 μM, read-out: SKOV-3TR IC50 of PM00104
  IC50: 5 ± 2 nM
SKOV-3TR cells; PM00104, add NSC23925 0.5 μM, read-out: SKOV-3TR IC50 of PM00104
  IC50: 7 ± 1 nM
SKOV-3TR cells; PM00104, add NSC23925 1 μM, read-out: SKOV-3TR IC50 of PM00104
  IC50: 5 ± 2 nM
SKOV-3TR cells; Paclitaxel, add NSC23925 0.1 μM, read-out: SKOV-3TR IC50 of Paclitaxel
  IC50: 302 ± 56 nM
SKOV-3TR cells; Paclitaxel, add NSC23925 0.5 μM, read-out: SKOV-3TR IC50 of Paclitaxel
  IC50: 132 ± 47 nM
SKOV-3TR cells; Paclitaxel, add NSC23925 1 μM, read-out: SKOV-3TR IC50 of Paclitaxel
  IC50: 37 ± 28 nM
SKOV-3TR cells; PM00104, add NSC23925 0.1 μM
  fold-reversal of drug resistance, SKOV-3TR: (1.2) fold
SKOV-3TR cells; PM00104, add NSC23925 0.5 μM
  fold-reversal of drug resistance, SKOV-3TR: (0.9^ fold
SKOV-3TR cells; PM00104, add NSC23925 1 μM
  fold-reversal of drug resistance, SKOV-3TR: (1.2) fold
SKOV-3TR cells; [5]
  fold-reversal of drug resistance, SKOV-3TR: (1.03) fold
SKOV-3TR cells; Paclitaxel, add NSC23925 0.5 μM
  fold-reversal of drug resistance, SKOV-3TR: (2.4) fold
SKOV-3TR cells; Paclitaxel, add NSC23925 1 μM
  fold-reversal of drug resistance, SKOV-3TR: (8.4) fold
